Measurements taken from paper PMC6072243 (ACS Omega, 2018).

Key:
JNK3 = JNK3 (Homo sapiens, UniProt P53779); assay: JNK3 enzyme-linked immunosorbent assay; type: biochemical
p38α MAPK = p38α MAPK (Homo sapiens, UniProt Q16539); assay: p38α MAPK enzyme-linked immunosorbent assay; type: biochemical; conditions: for inhibition at 10 µM: read-out: Percent inhibition of p38α MAPK at indicated concentration
JNK1 = JNK1 (Homo sapiens, UniProt P45983); assay: Radiometric assay, Reaction Biology corporation; type: biochemical
Sequence of JNK1 (P45983 whole entry): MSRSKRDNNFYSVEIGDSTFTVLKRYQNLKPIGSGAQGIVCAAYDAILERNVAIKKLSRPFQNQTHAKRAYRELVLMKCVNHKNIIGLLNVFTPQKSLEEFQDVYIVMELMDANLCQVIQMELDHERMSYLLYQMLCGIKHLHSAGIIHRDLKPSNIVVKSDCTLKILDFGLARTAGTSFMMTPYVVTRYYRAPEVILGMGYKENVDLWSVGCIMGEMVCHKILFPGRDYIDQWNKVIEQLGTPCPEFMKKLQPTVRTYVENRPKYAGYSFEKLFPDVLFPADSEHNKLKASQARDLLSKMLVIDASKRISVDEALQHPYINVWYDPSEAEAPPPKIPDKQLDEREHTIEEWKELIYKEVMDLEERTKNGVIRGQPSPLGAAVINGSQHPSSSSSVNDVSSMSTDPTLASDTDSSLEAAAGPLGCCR

JNK2 = JNK2 (Homo sapiens, UniProt P45984); assay: Radiometric assay, Reaction Biology corporation; type: biochemical
Sequence of JNK2 (P45984 whole entry): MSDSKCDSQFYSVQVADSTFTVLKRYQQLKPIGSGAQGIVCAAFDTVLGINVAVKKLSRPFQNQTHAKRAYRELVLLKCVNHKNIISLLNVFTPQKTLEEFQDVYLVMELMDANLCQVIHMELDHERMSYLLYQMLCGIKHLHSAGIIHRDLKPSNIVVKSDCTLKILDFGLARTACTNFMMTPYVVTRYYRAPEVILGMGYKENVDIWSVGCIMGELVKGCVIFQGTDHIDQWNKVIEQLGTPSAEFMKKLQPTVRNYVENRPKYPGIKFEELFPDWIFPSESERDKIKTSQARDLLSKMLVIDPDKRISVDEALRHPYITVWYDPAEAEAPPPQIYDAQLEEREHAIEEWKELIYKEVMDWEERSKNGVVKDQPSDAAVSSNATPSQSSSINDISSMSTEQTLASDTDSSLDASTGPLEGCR

hERG channels = hERG channels (Homo sapiens, UniProt Q12809); assay: hERG inhibition
Sequence of hERG channels (Q12809 whole entry): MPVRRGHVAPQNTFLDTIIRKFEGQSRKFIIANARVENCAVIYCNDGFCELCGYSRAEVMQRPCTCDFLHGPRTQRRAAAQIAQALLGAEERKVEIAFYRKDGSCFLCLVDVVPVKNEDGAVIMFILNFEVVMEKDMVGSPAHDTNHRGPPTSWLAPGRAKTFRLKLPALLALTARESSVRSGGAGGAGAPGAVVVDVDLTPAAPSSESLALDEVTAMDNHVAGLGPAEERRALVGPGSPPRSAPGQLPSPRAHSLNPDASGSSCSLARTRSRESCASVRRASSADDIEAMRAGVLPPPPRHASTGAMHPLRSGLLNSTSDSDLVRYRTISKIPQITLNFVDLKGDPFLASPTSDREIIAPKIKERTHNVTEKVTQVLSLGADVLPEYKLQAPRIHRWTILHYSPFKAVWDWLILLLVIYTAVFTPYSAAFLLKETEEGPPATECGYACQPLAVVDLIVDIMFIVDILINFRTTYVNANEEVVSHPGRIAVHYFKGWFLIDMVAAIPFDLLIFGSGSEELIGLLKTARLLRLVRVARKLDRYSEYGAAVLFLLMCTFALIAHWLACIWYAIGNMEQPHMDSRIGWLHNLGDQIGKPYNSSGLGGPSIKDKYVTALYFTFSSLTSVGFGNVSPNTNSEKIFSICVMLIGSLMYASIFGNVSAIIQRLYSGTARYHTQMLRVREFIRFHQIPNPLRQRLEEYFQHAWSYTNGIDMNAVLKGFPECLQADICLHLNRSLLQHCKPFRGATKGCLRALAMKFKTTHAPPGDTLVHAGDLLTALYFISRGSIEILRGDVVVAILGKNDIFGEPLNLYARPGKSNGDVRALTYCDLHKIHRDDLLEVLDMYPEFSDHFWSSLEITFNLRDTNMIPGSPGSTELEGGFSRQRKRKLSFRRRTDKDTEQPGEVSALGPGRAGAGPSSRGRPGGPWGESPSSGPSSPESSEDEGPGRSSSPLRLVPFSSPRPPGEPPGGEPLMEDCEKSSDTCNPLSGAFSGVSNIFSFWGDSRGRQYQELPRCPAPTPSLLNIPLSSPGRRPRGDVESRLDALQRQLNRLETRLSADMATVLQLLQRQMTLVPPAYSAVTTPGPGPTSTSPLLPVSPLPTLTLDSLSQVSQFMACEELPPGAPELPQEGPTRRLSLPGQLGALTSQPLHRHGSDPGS

CYP450 1A9 = assay: CYP450 inhibition; type: in vitro ADME; conditions: % inhibition at 10 μM
CYP450 2C9 = CYP450 2C9 (Homo sapiens, UniProt P11712); assay: CYP450 inhibition; type: in vitro ADME; conditions: % inhibition at 10 μM
Sequence of CYP450 2C9 (P11712 whole entry): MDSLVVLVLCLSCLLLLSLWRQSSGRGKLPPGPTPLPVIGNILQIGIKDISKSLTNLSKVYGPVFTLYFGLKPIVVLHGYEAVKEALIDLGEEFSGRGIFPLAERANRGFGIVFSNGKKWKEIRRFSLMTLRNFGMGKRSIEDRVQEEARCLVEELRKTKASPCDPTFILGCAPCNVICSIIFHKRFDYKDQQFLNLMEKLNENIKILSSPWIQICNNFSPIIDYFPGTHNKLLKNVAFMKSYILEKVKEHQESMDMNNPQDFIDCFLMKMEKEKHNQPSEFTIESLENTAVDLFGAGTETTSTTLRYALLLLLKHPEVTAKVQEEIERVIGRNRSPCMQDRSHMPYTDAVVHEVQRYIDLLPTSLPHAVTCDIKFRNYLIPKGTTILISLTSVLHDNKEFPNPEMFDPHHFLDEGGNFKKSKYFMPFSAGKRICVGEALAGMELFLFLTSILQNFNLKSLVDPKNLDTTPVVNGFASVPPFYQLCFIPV

CYP450 2C19 = CYP450 2C19 (Homo sapiens, UniProt P33261); assay: CYP450 inhibition; type: in vitro ADME; conditions: % inhibition at 10 μM
Sequence of CYP450 2C19 (P33261 whole entry): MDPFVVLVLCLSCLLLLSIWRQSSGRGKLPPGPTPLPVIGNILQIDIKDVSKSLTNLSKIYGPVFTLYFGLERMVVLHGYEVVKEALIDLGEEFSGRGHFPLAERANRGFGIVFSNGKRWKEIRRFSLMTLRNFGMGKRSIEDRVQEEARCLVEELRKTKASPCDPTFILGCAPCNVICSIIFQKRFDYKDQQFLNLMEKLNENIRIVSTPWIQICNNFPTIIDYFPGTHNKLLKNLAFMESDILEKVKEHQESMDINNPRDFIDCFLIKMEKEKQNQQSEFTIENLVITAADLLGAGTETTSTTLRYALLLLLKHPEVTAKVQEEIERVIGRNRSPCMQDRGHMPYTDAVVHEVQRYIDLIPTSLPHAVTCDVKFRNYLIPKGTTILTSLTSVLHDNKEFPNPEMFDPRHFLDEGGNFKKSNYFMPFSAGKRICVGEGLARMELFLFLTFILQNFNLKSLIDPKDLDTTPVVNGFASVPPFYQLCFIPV

CYP450 2D6 = CYP450 2D6 (Homo sapiens, UniProt P10635); assay: CYP450 inhibition; type: in vitro ADME; conditions: % inhibition at 10 μM
Sequence of CYP450 2D6 (P10635 whole entry): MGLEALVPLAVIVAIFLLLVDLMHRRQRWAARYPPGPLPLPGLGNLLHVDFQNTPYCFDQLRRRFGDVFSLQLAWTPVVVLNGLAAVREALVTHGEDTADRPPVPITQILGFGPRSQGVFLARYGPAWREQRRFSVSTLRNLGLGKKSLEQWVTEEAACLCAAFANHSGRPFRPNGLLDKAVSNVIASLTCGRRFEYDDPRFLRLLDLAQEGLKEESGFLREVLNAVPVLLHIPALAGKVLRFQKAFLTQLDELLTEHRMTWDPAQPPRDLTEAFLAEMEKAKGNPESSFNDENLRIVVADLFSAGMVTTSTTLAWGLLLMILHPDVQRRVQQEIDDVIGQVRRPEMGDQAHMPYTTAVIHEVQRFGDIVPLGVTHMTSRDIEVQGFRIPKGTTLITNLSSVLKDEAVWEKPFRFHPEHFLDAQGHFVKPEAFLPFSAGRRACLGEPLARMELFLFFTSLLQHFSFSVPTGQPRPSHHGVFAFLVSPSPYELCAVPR

CYP450 3A4 = CYP450 3A4 (Homo sapiens, UniProt P08684); assay: CYP450 inhibition; type: in vitro ADME; conditions: % inhibition at 10 μM
Sequence of CYP450 3A4 (P08684 whole entry): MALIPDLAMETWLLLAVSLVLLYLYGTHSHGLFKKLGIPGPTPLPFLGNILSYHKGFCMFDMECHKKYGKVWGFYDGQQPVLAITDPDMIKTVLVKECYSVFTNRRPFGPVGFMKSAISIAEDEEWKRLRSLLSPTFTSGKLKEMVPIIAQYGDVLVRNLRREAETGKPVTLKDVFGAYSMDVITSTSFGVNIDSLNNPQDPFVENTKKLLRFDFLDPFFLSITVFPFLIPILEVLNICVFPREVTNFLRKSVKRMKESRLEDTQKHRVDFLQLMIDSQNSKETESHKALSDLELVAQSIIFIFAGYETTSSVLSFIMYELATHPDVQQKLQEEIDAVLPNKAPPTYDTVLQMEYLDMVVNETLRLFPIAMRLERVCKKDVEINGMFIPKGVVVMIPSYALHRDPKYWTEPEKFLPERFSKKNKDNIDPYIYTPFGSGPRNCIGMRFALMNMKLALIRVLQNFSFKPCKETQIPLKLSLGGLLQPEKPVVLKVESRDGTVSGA

[1] = In vitro metabolic stability in human liver microsomes; type: in vitro ADME; conditions: after 4 h incubation
[2] = system: panel of 45 diverse kinases; assay: ExpresS Diversity Kinase Panel, whole panel; type: biochemical, human; conditions: panel of 45 kinases, 10 μM, including JNK1
[3] = 2-methylaminothiazole versus 2-sulfanylimidazole (compound 5)

Sequence of p38α MAPK (Q16539 whole entry): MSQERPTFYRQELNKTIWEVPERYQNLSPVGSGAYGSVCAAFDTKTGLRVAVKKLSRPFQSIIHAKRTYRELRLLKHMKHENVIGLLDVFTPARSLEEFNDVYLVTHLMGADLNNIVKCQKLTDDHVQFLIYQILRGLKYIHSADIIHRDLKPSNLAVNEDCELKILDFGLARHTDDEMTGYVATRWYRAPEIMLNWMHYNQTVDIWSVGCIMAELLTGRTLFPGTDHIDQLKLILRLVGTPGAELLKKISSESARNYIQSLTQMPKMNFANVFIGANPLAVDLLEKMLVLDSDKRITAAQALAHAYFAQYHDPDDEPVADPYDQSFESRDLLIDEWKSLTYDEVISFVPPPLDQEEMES
Sequence of JNK3 (P53779 whole entry): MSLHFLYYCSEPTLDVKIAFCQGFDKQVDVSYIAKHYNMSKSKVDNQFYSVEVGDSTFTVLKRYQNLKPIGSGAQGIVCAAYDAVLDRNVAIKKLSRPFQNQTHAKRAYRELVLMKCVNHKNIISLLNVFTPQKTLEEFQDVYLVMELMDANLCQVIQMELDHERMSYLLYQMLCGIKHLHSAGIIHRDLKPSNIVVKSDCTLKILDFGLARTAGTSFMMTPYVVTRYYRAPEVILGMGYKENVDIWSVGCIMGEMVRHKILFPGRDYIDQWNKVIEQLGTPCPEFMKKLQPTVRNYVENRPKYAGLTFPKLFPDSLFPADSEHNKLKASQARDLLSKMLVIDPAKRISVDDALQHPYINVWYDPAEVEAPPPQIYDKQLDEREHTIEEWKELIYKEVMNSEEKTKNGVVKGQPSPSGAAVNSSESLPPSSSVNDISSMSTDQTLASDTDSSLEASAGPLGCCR

Compound	IC50 (JNK3) [nM]	IC50 (p38α MAPK) [nM]	inhibition at 10 µM (p38α MAPK) [%]	other results
CSc1nc(C)c(-c2ccnc(Nc3ccc(N4CCOCC4)cc3)c2)[nH]1 [Compound 44, 4-(4-Methyl-2-(methylthio)-1H-imidazol-5-yl)-N-(4-morpholinophenyl)pyridin-2-amine]	363 ± 34	> 10000	48	fold increase in the inhibitory potency on JNK3 over analogue 38 (JNK3): 2 fold; IC50 (JNK1): 119 nM; IC50 (JNK2): 468 nM; IC50 (hERG channels): > 10000 nM; hERG inhibition [% inhibition at 10 μM] (hERG channels; 10 μM): 38.8%; CYP450 inhibition 1A9 (CYP450 1A9): 51.5%; CYP450 inhibition 2C9 (CYP450 2C9): 53.9%; CYP450 inhibition 2C19 (CYP450 2C19): 35.6%; CYP450 inhibition 2D6 (CYP450 2D6): 19.0%; CYP450 inhibition 3A4 (CYP450 3A4): 75.1%; unmodified compound still present [1]: approximately 80%; number of kinases inhibited more than 50% [2]: 10
CSc1nc(C)c(-c2ccnc(Nc3ccc(NC(=O)c4ccccc4)cc3)c2)[nH]1 [Compound 48o, N-(4-((4-(4-Methyl-2-(methylthio)-1H-imidazol-5-yl)pyridin-2-yl)amino)phenyl)benzamide]	432 ± 37	> 10000	33	–
CSc1nc(C)c(-c2ccnc(Nc3ccc(NC(=O)C4CCCCC4)cc3)c2)[nH]1 [Compound 48p, N-(4-((4-(4-Methyl-2-(methylthio)-1H-imidazol-5-yl)pyridin-2-yl)amino)phenyl)cyclohexanecarboxamide]	1540	> 10000	27	–
CSc1nc(C)c(-c2ccnc(Nc3ccc(NC(=O)C(C)(C)C)cc3)c2)[nH]1 [Compound 48q, N-(4-((4-(4-Methyl-2-(methylthio)-1H-imidazol-5-yl)pyridin-2-yl)amino)phenyl)pivalamide]	2370	> 10000	15	–
CSc1nc(-c2ccnc(Nc3ccc(N4CCOCC4)cc3)c2)c(C)n1C [Compound 50, 4-(1,5-Dimethyl-2-(methylthio)-1H-imidazol-4-yl)-N-(4-morpholinophenyl)pyridin-2-amine]	1280	> 10000	37	–
CSc1nc(C)c(-c2ccnc(Nc3ccc(N4CCOCC4)cc3)c2)n1C [Compound 57, 4-(1,4-Dimethyl-2-(methylthio)-1H-imidazol-5-yl)-N-(4-morpholinophenyl)pyridin-2-amine]	2510	> 10000	10	–
CCn1c(SC)nc(C)c1-c1ccnc(Nc2ccc(N3CCOCC3)cc2)c1 [Compound 58, 4-(1-Ethyl-4-methyl-2-(methylthio)-1H-imidazol-5-yl)-N-(4-morpholinophenyl)pyridin-2-amine]	2090	> 10000	21	–
CSc1nc(C)c(-c2ccnc(Nc3ccc(N4CCOCC4)cc3)c2)n1C1CC1 [Compound 59, 4-(1-Cyclopropyl-4-methyl-2-(methylthio)-1H-imidazol-5-yl)-N-(4-morpholinophenyl)pyridin-2-amine]	6510	> 10000	40	fold less active on JNK3 compared to N-methyl analogue 57 (JNK3): ~3 fold
Fc1ccc(-n2cncc2-c2ccnc(Nc3ccc(N4CCOCC4)cc3)c2)cc1 [Compound 66, 4-(1-(4-Fluorophenyl)-1H-imidazol-5-yl)-N-(4-morpholinophenyl)pyridin-2-amine]	276 ± 10	323 ± 14	–	–
Cn1cncc1-c1ccnc(Nc2ccc(N3CCOCC3)cc2)c1 [Compound 67, 4-(1-Methyl-1H-imidazol-5-yl)-N-(4-morpholinophenyl)pyridin-2-amine]	714 ± 21	> 10000	32	–
Cn1ccnc1-c1ccnc(Nc2ccc(N3CCOCC3)cc2)c1 [Compound 71, 4-(1-Methyl-1H-imidazol-2-yl)-N-(4-morpholinophenyl)pyridin-2-amine]	> 10000	> 10000	15	inhibition at 10 µM (JNK3; read-out: Percent inhibition of JNK3 at indicated concentration): 42%
CNc1nc(-c2ccc(F)cc2)c(-c2ccnc(Nc3ccc(N4CCOCC4)cc3)c2)s1 [Compound 75, 4-(4-Fluorophenyl)-N-methyl-5-(2-((4-morpholinophenyl)amino)pyridin-4-yl)thiazol-2-amine]	15 ± 3	2	–	fold increase in inhibitory activity for JNK3 (JNK3; [3]): 2.5 fold; fold increase in inhibitory activity for p38α MAPK (p38α MAPK; [3]): 8 fold
CNc1nc(-c2ccnc(Nc3ccc(N4CCOCC4)cc3)c2)c(C)s1 [Compound 78, N,5-Dimethyl-4-(2-((4-morpholinophenyl)amino)pyridin-4-yl)thiazol-2-amine]	2500	> 10000	9	–
